In the series the test system is CCRIS mutagenicity, Ames/micronucleus/aberration tests. Put plainly: CCRIS mutagenicity studies.
Setting [1] is: Test System: AMES SALMONELLA TYPHIMURIUM, Strain/Indicator: TA98, Metabolic Activation: HAMSTER, LIVER, S-9, AROCLOR 1254 (10%), Method: PREINCUBATION
Where [2] appears, read: Test System: AMES SALMONELLA TYPHIMURIUM, Strain/Indicator: TA98, Metabolic Activation: NONE, Method: PREINCUBATION
[3] abbreviates: Test System: AMES SALMONELLA TYPHIMURIUM, Strain/Indicator: TA98, Metabolic Activation: RAT, LIVER, S-9, AROCLOR 1254 (10%), Method: PREINCUBATION
Where [4] appears, read: Test System: AMES SALMONELLA TYPHIMURIUM, Strain/Indicator: TA100, Metabolic Activation: HAMSTER, LIVER, S-9, AROCLOR 1254 (10%), Method: PREINCUBATION
Where [5] appears, read: Test System: AMES SALMONELLA TYPHIMURIUM, Strain/Indicator: TA100, Metabolic Activation: NONE, Method: PREINCUBATION
Setting [6] is: Test System: AMES SALMONELLA TYPHIMURIUM, Strain/Indicator: TA100, Metabolic Activation: RAT, LIVER, S-9, AROCLOR 1254 (10%), Method: PREINCUBATION
Setting [7] is: Test System: AMES SALMONELLA TYPHIMURIUM, Strain/Indicator: TA1535, Metabolic Activation: HAMSTER, LIVER, S-9, AROCLOR 1254 (10%), Method: PREINCUBATION
Where [8] appears, read: Test System: AMES SALMONELLA TYPHIMURIUM, Strain/Indicator: TA1535, Metabolic Activation: NONE, Method: PREINCUBATION
The mark [9] stands for this setting: Test System: AMES SALMONELLA TYPHIMURIUM, Strain/Indicator: TA1535, Metabolic Activation: RAT, LIVER, S-9, AROCLOR 1254 (10%), Method: PREINCUBATION
[10] abbreviates: Test System: AMES SALMONELLA TYPHIMURIUM, Strain/Indicator: TA1537, Metabolic Activation: HAMSTER, LIVER, S-9, AROCLOR 1254 (10%), Method: PREINCUBATION
Where [11] appears, read: Test System: AMES SALMONELLA TYPHIMURIUM, Strain/Indicator: TA1537, Metabolic Activation: NONE, Method: PREINCUBATION
The mark [12] stands for this setting: Test System: AMES SALMONELLA TYPHIMURIUM, Strain/Indicator: TA1537, Metabolic Activation: RAT, LIVER, S-9, AROCLOR 1254 (10%), Method: PREINCUBATION
[13] abbreviates: Test System: AMES SALMONELLA TYPHIMURIUM, Strain/Indicator: TA98, Metabolic Activation: NONE, Method: STANDARD PLATE.
Setting [14] is: Test System: AMES SALMONELLA TYPHIMURIUM, Strain/Indicator: TA100, Metabolic Activation: NONE, Method: STANDARD PLATE.

Calls of active or inactive are those of the source. How the calls were made is not given here.

Results on nine compounds are retold here after PubChem BioAssay AID1259407 (Chemical Carcinogenesis Research Information System (CCRIS), 2018).

As for `CC(C)=CCl`, the mutagenic call is, setting by setting: (End Point: IN VITRO CHROMOSOMAL ABERRATIONS, Test System: CHO CELLS, Metabolic Activation: NONE) “inactive; negative”; (End Point: IN VITRO CHROMOSOMAL ABERRATIONS, Test System: CHO CELLS, Metabolic Activation: RAT, LIVER, S-9, AROCLOR 1254) “inactive; negative”; under setting [1], “inactive; negative”; under setting [2], “inactive; negative”; under setting [3], “inactive; negative”; under setting [4], “inactive; negative”. For the same compound, the mutagenic call under setting [5] is “inactive; negative”; the mutagenic call under setting [6] is “inactive; negative”; the mutagenic call (Test System: AMES SALMONELLA TYPHIMURIUM, Strain/Indicator: TA102, Metabolic Activation: RAT, LIVER, S-9, PHENOBARBITAL AND 5,6-BENZOFLAVONE, Method: STANDARD PLATE) was “inactive; negative”; the mutagenic call under setting [7] was “inactive; negative”; the mutagenic call under setting [8] was “inactive; negative”; the mutagenic call under setting [9] was “inactive; negative”. Also, the mutagenic call is “inactive; negative” under setting [10]; “inactive; negative” under setting [11]; “inactive; negative” under setting [12]; “inactive; negative” (Test System: AMES SALMONELLA TYPHIMURIUM, Strain/Indicator: TA2638, Metabolic Activation: RAT, LIVER, S-9, PHENOBARBITAL AND 5,6-BENZOFLAVONE, Method: STANDARD PLATE); “inactive; negative” (Test System: E. COLI, Strain/Indicator: WP2 (PKM101), Metabolic Activation: RAT, LIVER, S-9, PHENOBARBITAL AND 5,6-BENZOFLAVONE, Method: STANDARD PLATE); “inactive; negative” (Test System: E. COLI, Strain/Indicator: WP2 UVRA (PKM101), Metabolic Activation: RAT, LIVER, S-9, PHENOBARBITAL AND 5,6-BENZOFLAVONE, Method: STANDARD PLATE). In addition, the mutagenic call was “active; positive. reevaluation of results: positive” (Test System: MOUSE LYMPHOMA, Strain/Indicator: L5178Y (TK+/TK-), Metabolic Activation: RAT, LIVER, S-9, AROCLOR 1254, Method: SUSPENSION/PLATE) and “inactive; negative” (Test System: Mouse lymphoma, Strain/Indicator: L5178Y (tk+/tk-), Metabolic Activation: None, Method: Suspension/plate).
As for `Cc1cc2c(nc(N)n2C)c2nccnc12`, the mutagenic call (Test System: AMES SALMONELLA TYPHIMURIUM, Strain/Indicator: TA98, Metabolic Activation: RAT, LIVER, S-9, AROCLOR 1254, Method: STANDARD PLATE) was “active; positive”.
On to `CN(Cc1cccc(C#N)c1)N=O`, for which the mutagenic call (Test System: AMES SALMONELLA TYPHIMURIUM, Strain/Indicator: TA1535, Metabolic Activation: HAMSTER, LIVER, S-9, AROCLOR 1254, Method: STANDARD PLATE) was “active; positive” and the mutagenic call (Test System: AMES SALMONELLA TYPHIMURIUM, Strain/Indicator: TA1535, Metabolic Activation: NONE, Method: STANDARD PLATE) was “active; positive”.
Consider `O=Cc1ccc(Cl)cc1`, for which the mutagenic call is, setting by setting: under setting [2], “inactive; negative”; (Test System: AMES SALMONELLA TYPHIMURIUM, Strain/Indicator: TA98, Metabolic Activation: RAT LIVER S-9, PCB, Method: PREINCUBATION) “inactive; negative”; under setting [5], “inactive; negative”; (Test System: AMES SALMONELLA TYPHIMURIUM, Strain/Indicator: TA100, Metabolic Activation: RAT LIVER S-9, AROCLOR 1254, Method: PREINCUBATION) “inactive; negative”; (Test System: AMES SALMONELLA TYPHIMURIUM, Strain/Indicator: TA100, Metabolic Activation: RAT LIVER S-9, PCB, Method: PREINCUBATION) “inactive; negative”; (Test System: AMES SALMONELLA TYPHIMURIUM, Strain/Indicator: TA102, Metabolic Activation: NONE, Method: PREINCUBATION) “inactive; negative”. In addition, the mutagenic call reads like this: (Test System: AMES SALMONELLA TYPHIMURIUM, Strain/Indicator: TA102, Metabolic Activation: RAT LIVER S-9, AROCLOR 1254, Method: PREINCUBATION) “inactive; negative”; (Test System: AMES SALMONELLA TYPHIMURIUM, Strain/Indicator: TA104, Metabolic Activation: NONE, Method: PREINCUBATION) “inactive; negative”; (Test System: AMES SALMONELLA TYPHIMURIUM, Strain/Indicator: TA104, Metabolic Activation: RAT LIVER S-9, AROCLOR 1254, Method: PREINCUBATION) “inactive; negative”; (Test System: AMES SALMONELLA TYPHIMURIUM, Strain/Indicator: TA104, Metabolic Activation: RAT LIVER S-9, PCB, Method: PREINCUBATION) “inactive; negative”; (Test System: E. COLI, Strain/Indicator: WP2 UVRA, Metabolic Activation: NONE, Method: PREINCUBATION) “inactive; negative”; (Test System: E. COLI, Strain/Indicator: WP2 UVRA, Metabolic Activation: RAT LIVER S-9, PCB, Method: PREINCUBATION) “inactive; negative”. Further, the mutagenic call was “inactive; positive. reevaluation of results: negative” (Test System: MOUSE LYMPHOMA, Strain/Indicator: L5178Y (TK+/TK-), Metabolic Activation: NONE, Method: SUSPENSION/PLATE) and “inactive; negative” (Test System: Mouse lymphoma, Strain/Indicator: L5178Y (tk+/tk-), Metabolic Activation: Rat, Liver, S-9, Aroclor 1254, Method: Suspension/plate).
`O=Nc1ccc2ccc3c4ccccc4cc4ccc1c2c43`: the mutagenic call (Test System: AMES SALMONELLA TYPHIMURIUM, Strain/Indicator: TA98 (1,8-DNP6), Metabolic Activation: NONE, Method: STANDARD PLATE) is “active; positive”; the mutagenic call (Test System: AMES SALMONELLA TYPHIMURIUM, Strain/Indicator: TA98 (NR), Metabolic Activation: NONE, Method: STANDARD PLATE) was “active; positive”; the mutagenic call under setting [13] is “active; positive”; the mutagenic call (Test System: CHINESE HAMSTER OVARY, Strain/Indicator: CHO-K1-BH4 (HGPRT), Metabolic Activation: NONE) is “active; positive”.
For `CC(=O)O[C@H]1[C@H](OC(C)=O)COC(Nc2ccc([N+](=O)[O-])cc2)[C@@H]1OC(C)=O` (some centres not stated), the mutagenic call under setting [14] was “inactive; negative”.
Regarding `CCN(CC)[N+](=O)[O-]`, for the setting “Test System: E. COLI, Strain/Indicator: WP2 (HCR-), Metabolic Activation: RAT, LIVER, MICROSOMES, PHENOBARBITAL”, the mutagenic call was “inactive; negative”.
For `CC(=O)OC1Cc2c3ccc4ccccc4c3cc3ccc(C)c1c23` (configuration not stated), the mutagenic call was “inactive; negative” under setting [13] and “active; positive” under setting [14].
With `O=C(Nc1ccc(Cl)cc1)Nc1ccc(Cl)c(Cl)c1`, the mutagenic call runs as follows: under setting [1], “inactive; negative”; under setting [2], “inactive; negative”; under setting [3], “inactive; negative”; under setting [4], “inactive; negative”; under setting [5], “inactive; negative”; under setting [6], “inactive; negative”. Moreover, the mutagenic call by setting is: under setting [7], “inactive; negative”; under setting [8], “inactive; negative”; under setting [9], “inactive; negative”; under setting [10], “inactive; negative”; under setting [11], “inactive; negative”; under setting [12], “inactive; negative”.
